{"source": "patent US20090264421A1", "about": "(priority 2007, published 2009)", "key": {"[1]": {"tested_on": "A549 cells", "conditions": "for effect of NAC on reductions in colony formation caused by HDAC inhibitors: data not shown", "method": "FIG. 5. […] B. Assessment of intracellular (A549 cells) and extracellular (media) chaetocin concentrations as functions of time in response to addition of 10 μM chaetocin to tissue culture media at time 0. C. […] For B and C, chaetocin concentrations were determined as described in the text using HPLC. […] Cells were exposed to all agents for 24 hours, with colonies assessed 6-7 days subsequently as described below.\nFIG. 6. […] C. and D. The effects of glutathione pretreatment on intracellular (C) and extracellular (media, D) chaetocin concentration in response to treatment of A549 cells with 10 μM chaetocin for 5 min. Intracellular and extracellular chaetocin concentrations were assessed using HPLC as described in the text, with 100 μM glutathione added 5 minutes before chaetocin addition. E. “Double reciprocal” plot indicating the effects of 5 minute pretreatment with 100 […] glutathione or diluent on intracellular chaetocin concentrations resulting from exposure of A549 cells to varying concentration of chaetocin for 5 minutes. Intracellular chaetocin concentrations were assessed using HPLC as described in the text. Results shown are representative of three independent experiments.\nColony formatting assays: Briefly, 650 suspended A549 cells obtained from trypsinization of stock flasks of subconfluent cell cultures were deposited into each of triplicate sets of 35 mm tissue culture plates and allowed to adhere for 16 hours. Cells were then treated for the indicated durations (24 hours unless otherwise indicated) with diluent and/or drugs as indicated in the text and Figures. After drug removal and washing, cells were allowed to proliferate in drug-free medium for 7 to 10 days, and thereafter washed twice with serum-free phosphate buffered saline (PBS), stained with Coomassie blue, and then manually counted."}, "[2]": {"biological_target": "T1, thioredoxin reductase (Rattus norvegicus, UniProt O89049)", "T1 construct": "rat liver thioredoxin reductase; purchased Sigma (St. Louis, Mo.); host or cells: rat liver", "T1 sequence (O89049 1-499)": "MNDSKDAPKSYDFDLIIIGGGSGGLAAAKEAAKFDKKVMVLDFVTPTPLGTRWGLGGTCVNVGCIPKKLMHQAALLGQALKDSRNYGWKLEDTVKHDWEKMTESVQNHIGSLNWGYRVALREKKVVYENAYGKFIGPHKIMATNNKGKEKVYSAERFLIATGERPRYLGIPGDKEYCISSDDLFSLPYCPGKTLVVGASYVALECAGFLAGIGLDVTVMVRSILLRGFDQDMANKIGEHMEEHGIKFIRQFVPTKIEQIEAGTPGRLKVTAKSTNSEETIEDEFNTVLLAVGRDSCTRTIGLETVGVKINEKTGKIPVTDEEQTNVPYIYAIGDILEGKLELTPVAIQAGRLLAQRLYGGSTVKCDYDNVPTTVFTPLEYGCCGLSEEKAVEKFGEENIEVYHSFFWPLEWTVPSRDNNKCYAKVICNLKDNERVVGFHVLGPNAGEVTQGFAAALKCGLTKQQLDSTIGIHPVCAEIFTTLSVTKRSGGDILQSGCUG", "assay": "Thioredoxin reductase activity assay (gel-based oxidation state of thioredoxin method)", "type": "biochemical", "conditions": "gel-based, AMS modification", "method": "HeLa cells were obtained from ATCC.\nThioredoxin Reductase Activity Assay (gel-based oxidation state of thioredoxin method): Reduction of thioredoxin by thioredoxin reductase was measured by the decrease in electrophoretic mobility caused by covalent modification of thioredoxin (by AMS) when the disulfide is reduced. […] At the indicated time, a 5 μL sample was removed and immediately added to 5 μL of 30 mM AMS in TE buffer (pH 7.5). The AMS was allowed to react (15 minutes at 22° C.) with reduced thioredoxin sulfhydryl groups, then the samples were mixed with non-reducing sample buffer and were electrophoresed on 18% Tris-HCl SDS-PAGE gels. The gels were stained with Coomassie blue and bands were imaged and quantitated using a Syngene InGenius gel documentation system (Frederick, Md.)."}, "[3]": {"tested_on": "A549 cells", "type": "cell-based, human", "method": "FIG. 7. […] A549 cells were exposed to the indicated concentration of chaetocin for 24 hours, with addition of glutathione or diluent 30 minutes prior to chaetocin addition. Glutathione levels were assessed by spectrophotometric assay as described below. […] Cells were treated with 10 μM chaetocin for 20 minutes prior to assay, and calculated intracellular chaetocin levels were measured by HPLC with adjusted for differences in average cell volume (calculated from measured cell radii ascertained via light microscopy). Shaded area represents 1 standard deviation confidence interval, with central bar reflecting the mean relative intracellular chaetocin level. […] Cells from 4 myeloma patients were exposed to 200 μM hydrogen peroxide for 24 hours prior to assay, with trypan blue exclusion used to assess surviving cells.\nAssessment of cellular oxidative stress: Cellular oxidative stress was assessed utilizing 5,6-chloromethyl-2′,7′-dichlorodihydrofluorescein diacetate or hydroethidium (Molecular Probes/Invitrogen, Carlsbad, Calif.) as cell permeable fluorescent probes and FACS analyses."}, "[4]": {"biological_target": "T2, TrxR1 (Rattus norvegicus, UniProt O89049)", "T2 sequence (O89049 1-499)": "T1 sequence (O89049 1-499)", "text": "Reagents: Chaetocin, β-Nicotinamide adenine dinucleotide 2′-phosphate reduced tetrasodium salt hydrate (NADPH), rat liver thioredoxin reductase, 5,5′-dithiobis(2-nitrobenzoic acid) (DTNB), oxidized glutathione (GSSG), bovine insulin, gliotoxin, thioredoxin reductase assay kit, anti-actin antibody and Celytic lysis reagent were purchased from Sigma (St. Louis, Mo.); yeast glutathione reductase and Complete Protease Inhibitor Tablets from Roche (Indianapolis, Ind.); BCA protein from Pierce (Rockford, Ill.); oxidized E. coli thioredoxin and dithiothreitol (DTT) from Promega (Madison, Wis.); verruculogen from Calbiochem (San Diego, Calif.); 4-acetamido-4′-maleimidylstilbene-2,2′-disulfonic acid (AMS) and Lipofectamine-Plus from Invitrogen (Carlsbad, Calif.); chaetomin from Alexis Biochemicals (San Diego, Calif.); and anti-thioredoxin antibody from Cell Signaling (Beverly, Mass.). HeLa cells were obtained from ATCC.\nSteady-state kinetics: The 100 μL reaction consisted of 100 mM potassium phosphate (pH 7.0), 10 mM EDTA, 0.0004 U/μL thioredoxin reductase and chaetocin or other compounds as indicated. The assay was carried out in a 96-well quartz plate and the oxidation of NADPH was measured as a change in absorption at 340 nm. The initial velocities of the reaction were calculated from the decrease in the absorbance between 0 and 5 min (slope), and on a pathlength of 0.3 cm and NADPH ε=6.22 mmol^−1*cm^−1*L. The velocity versus concentration data were then analyzed using SigmaPlot's Enzyme Kinetics 1.3 program (Systat Software, San Jose, Calif.)."}, "[5]": {"tested_on": "freshly collected sorted patient CD138+ myeloma cells", "conditions": "24 hours", "method": "FIG. 3. […] Survival indicated in A-E was assessed using a trypan blue exclusion assay, counting viable cells using a hemocytometer after 24 hour exposure to the indicated drugs and drug concentrations.\nPatient bone marrow leukocytes were divided into myeloma (CD138+) and non-myeloma/normal leukocyte (CD138−) fractions employing sorting using magnetic bead technology in kit form (MACS CD138 microbeads, Miltenyi Biotech, Auburn, Calif.). Sorted cells were plated in a 96-well tissue culture plate at a concentration of 5×10^5 cells and dosed with indicated drug concentrations for 24 hours. Survival was assessed using a trypan blue exclusion assay."}, "[6]": {"tested_on": "A549 cells", "type": "cell-based, human", "conditions": "glutathione added 5 minutes before 10 μM chaetocin", "text": "Measurement of intra- and extracellular chaetocin levels: Tumor cells treated with indicated chaetocin concentrations were washed twice with ice cold PBS, immediately solubilized in 0.5 M perchloric acid, and evaluated “real time” via HPLC using Beckman System Gold Nouveau Software with a dual pump 125 gradient pump system, 507e autosampler, 168 diode array detector, and Beckman Ultrasphere ODS column (4.6 mm×[…]×7 μm) using the following elution profile: 100% water to 100% methanol linear gradient over 40 minutes, followed by a 10 minute period of elution with 100% methanol. Quantitation was accomplished using a standard curve of peak areas derived from analogous HPLC data using varying concentrations of chaetocin."}, "[7]": {"tested_on": "HeLa cells", "assay": "Transient thioredoxin overexpression in HeLa cells, trypan blue viability", "type": "cell-based, human", "conditions": "100 nM, 24 hours", "method": "A. Transient overexpression of thioredoxin attenuates chaetocin—but not doxorubicin-induced cytotoxicity in HeLa cells. Transfected cells were treated for 24 hours, cell viability assessed using a trypan blue […] assay. Inset: immunoblotting showing increased level of thioredoxin in transiently transfected HeLa cells compared to empty-vector transfected cells. B. Model indicating how chaetocin competes with thioredoxin as a substrate for thioredoxin reductase, thereby serving to attenuate reduction of the thioredoxin reductase downstream substrate and effector thioredoxin. Figure numbers corresponding to experimental data supporting indicated effects are shown.\nCell culture, transient transfections, and immunoblotting: HeLa cells were cultured in RPMI 1640 containing 5% FBS and 2 mM L-glutamine. Cells were passaged twice weekly and maintained in 37° C. in an atmosphere containing 95% air-5% CO2 (vol/vol). For transfections, 10^5 cells per well were plated in 12-well plates and were transfected with 1 μg pcDNA or pcDNA-Trx using standard Lipofectamine-Plus procedures. Transfection efficiency based on cells transfected with GFP was 80%. […] The cells were then trypsinized and manually counted in trypan blue to exclude dead cells. […] Protein was analyzed by BCA assay and lysates were electrophoresed on 15% SDS-PAGE gels and transferred to nitrocellulose. […]"}, "[8]": {"conditions": "substrate of TrxR1, NADPH oxidation"}}, "note": "Like-named read-outs stand apart in the source and are kept apart here.", "data": [{"compound": "CC(/C=C/C(=O)NO)=C\\[C@@H](C)C(=O)c1ccc(N(C)C)cc1", "note": "[tricostatin A, trichostatin A]", "values": [{"measurement": "effect of NAC on reductions in colony formation caused by HDAC inhibitors", "setting": "[1]; A549 cells", "result": "unaffected by NAC"}]}, {"compound": "CS[C@@]1(CO)C(=O)N2[C@H]3Nc4ccccc4[C@@]3([C@]34C[C@]5(SC)C(=O)N(C)[C@@](CO)(SC)C(=O)N5[C@H]3Nc3ccccc34)C[C@]2(SC)C(=O)N1C", "note": "[S-methyl chaetocin]", "values": [{"measurement": "cytotoxicity (colony formation)", "setting": "[1]; 24 hour exposure, modified chaetocin disulfide bond", "result": "complete abrogation of its cytotoxicity"}, {"measurement": "inhibition of reduction of thioredoxin by thioredoxin reductase", "setting": "[2]", "result": "inability"}]}, {"compound": "CC(=O)N[C@@H](CS)C(=O)O", "note": "[NAC, N-acetyl cysteine]", "values": [{"measurement": "effect of pretreatment on chaetocin-induced oxidative stress", "setting": "[3]; 10 mM NAC", "result": "attenuated chaetocin-induced oxidative stress"}, {"measurement": "effect of co-treatment on chaetocin-induced reductions in colony formation", "setting": "[1]; A549 cells, co-treatment with chaetocin", "result": "attenuated chaetocin-induced cytotoxicity"}]}, {"compound": "Trx: TrxR1 native substrate thioredoxin (oxidized E. coli thioredoxin from Promega)", "values": [{"measurement": "Km", "setting": "[4]; [8]", "result": "105 ± 26", "unit": "µM"}]}, {"compound": "O=C(/C=C/c1ccc(CN(CCO)CCc2c[nH]c3ccccc23)cc1)NO", "note": "[LAQ-824]", "values": [{"measurement": "effect of NAC on reductions in colony formation caused by HDAC inhibitors", "setting": "[1]; A549 cells", "result": "unaffected by NAC"}]}, {"compound": "COc1ccc2c3c4n(c2c1)[C@H](C=C(C)C)OOC(C)(C)C[C@@H]4N1C(=O)[C@@H]2CCCN2C(=O)[C@]1(O)[C@H]3O", "note": "[verruculogen, reference compound]", "values": [{"measurement": "inhibition of reduction of thioredoxin by thioredoxin reductase", "setting": "[2]", "result": "inability"}]}, {"compound": "CCCC(CCC)C(=O)O", "note": "[valproic acid]", "values": [{"measurement": "effect of NAC on reductions in colony formation caused by HDAC inhibitors", "setting": "[1]; A549 cells", "result": "unaffected by NAC"}]}, {"compound": "CN1C(=O)[C@]2(Cc3cn([C@]45C[C@@]67SS[C@@](CO)(C(=O)N6[C@H]4Nc4ccccc45)N(C)C7=O)c4ccccc34)SS[C@@]1(CO)C(=O)N2C", "note": "[chetomin, chaetomin]", "values": [{"measurement": "inhibition of reduction of thioredoxin by thioredoxin reductase", "setting": "[2]", "result": "also inhibited the activity of thioredoxin reductase, albeit somewhat less effectively than chaetocin"}, {"measurement": "Km", "setting": "[4]; [8]", "result": "16.1 ± 5.4", "unit": "µM"}]}, {"compound": "OO", "note": "[H2O2, hydrogen peroxide]", "values": [{"measurement": "cellular oxidative stress", "setting": "[3]; 24 hours, FACS probe", "result": "increased intracellular oxidative species"}, {"measurement": "sensitivity of patient myeloma cells versus matched normal leukocytes", "setting": "[5]; 200 μM hydrogen peroxide, 4 patients", "result": "more sensitive to peroxide-induced cytotoxicity"}]}, {"compound": "N[C@@H](CCC(=O)N[C@@H](CS)C(=O)NCC(=O)O)C(=O)O", "note": "[glutathione, reference compound]", "values": [{"measurement": "effect of co-treatment on chaetocin-induced reductions in colony formation", "setting": "[1]", "result": "attenuated chaetocin-induced cytotoxicity"}, {"measurement": "effect of pretreatment on cellular accumulation of chaetocin", "setting": "[6]", "result": "attenuated the cellular accumulation of chaetocin"}]}, {"compound": "COc1cccc2c1C(=O)c1c(O)c3c(c(O)c1C2=O)C[C@@](O)(C(=O)CO)C[C@@H]3O[C@H]1C[C@H](N)[C@H](O)[C@H](C)O1", "note": "[doxorubicin]", "values": [{"measurement": "effect of transient Trx overexpression on drug-induced cell death", "setting": "[7]", "result": "did not appreciably rescue cells from doxorubicin-induced cell death"}, {"measurement": "activity against sorted patient CD138+ myeloma cells", "setting": "[5]; ex vivo, trypan blue exclusion", "result": "largely resistant"}]}, {"compound": "CN1C(=O)[C@]23CC4=CC=C[C@H](O)[C@H]4N2C(=O)[C@@]1(CO)SS3", "note": "[gliotoxin]", "values": [{"measurement": "inhibition of reduction of thioredoxin by thioredoxin reductase", "setting": "[2]", "result": "also inhibited the activity of thioredoxin reductase, albeit somewhat less effectively than chaetocin"}, {"measurement": "Km", "setting": "[4]", "result": "16 ± 5", "unit": "µM"}]}]}
